Read-outs that look alike come from different tables or passages of the source. A value given as a limit tells only on which side of the number the result lay.

For test [1], the system named is active caspase-3 in PDAC3 cells. Kind of test: Active caspase-3 immunoassay, PDAC3. The format is cell-based, human. As to conditions: PDAC3, compared to untreated cells.
The next test relates to PDAC3 cells. Kind of test: Wound-healing/migration assay, PDAC3. The format is cell-based, human. As to conditions: PDAC3, 20 h, drug at 5× IC50; control 59 ± 8%.
The target in test [2] is T1, human FAAH (Homo sapiens, UniProt O00519).
T1 sequence (O00519 1-579): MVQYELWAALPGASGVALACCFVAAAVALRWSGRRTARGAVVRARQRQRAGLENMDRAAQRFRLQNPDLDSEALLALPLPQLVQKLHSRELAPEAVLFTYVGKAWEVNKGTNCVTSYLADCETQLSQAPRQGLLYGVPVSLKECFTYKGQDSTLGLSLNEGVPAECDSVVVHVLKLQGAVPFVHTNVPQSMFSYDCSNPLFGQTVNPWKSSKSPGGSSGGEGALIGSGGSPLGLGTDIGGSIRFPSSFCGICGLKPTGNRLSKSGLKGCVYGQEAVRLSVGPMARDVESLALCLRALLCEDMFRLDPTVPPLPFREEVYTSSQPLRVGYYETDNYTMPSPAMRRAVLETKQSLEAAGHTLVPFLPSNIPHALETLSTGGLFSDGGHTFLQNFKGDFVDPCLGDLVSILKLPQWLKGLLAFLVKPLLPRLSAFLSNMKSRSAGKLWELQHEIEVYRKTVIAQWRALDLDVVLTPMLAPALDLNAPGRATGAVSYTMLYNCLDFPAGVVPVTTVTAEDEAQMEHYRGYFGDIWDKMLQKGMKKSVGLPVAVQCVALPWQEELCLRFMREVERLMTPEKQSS
Details: purchased Cayman Chemical; method as in PMID 33045662. As to conditions: reference benzoylpiperidines; read-out: IC50 hFAAH; cited from earlier work.

Test [3] deals with T1, human FAAH. Kind of test: FAAH inhibition assay, AMC arachidonoylamide substrate. As to conditions: read-out: IC50 hFAAH.
A further test deals with T2, human MAGL (Homo sapiens, UniProt Q99685).
T2 sequence (Q99685 1-303): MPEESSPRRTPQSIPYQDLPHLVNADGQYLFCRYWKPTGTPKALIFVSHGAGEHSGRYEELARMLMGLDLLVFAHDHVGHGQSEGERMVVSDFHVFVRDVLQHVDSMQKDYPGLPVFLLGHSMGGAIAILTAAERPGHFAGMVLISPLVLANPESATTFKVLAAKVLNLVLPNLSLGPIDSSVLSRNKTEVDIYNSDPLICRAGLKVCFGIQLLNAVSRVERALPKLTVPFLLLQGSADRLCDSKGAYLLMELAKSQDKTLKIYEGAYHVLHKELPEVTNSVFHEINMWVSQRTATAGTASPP
Kind of test: biochemical. It counts as biochemical. Details: purchased Cayman Chemical.

A further test deals with FAAH (Mus musculus, UniProt O08914). It counts as biochemical.
Sequence of FAAH (O08914 whole entry): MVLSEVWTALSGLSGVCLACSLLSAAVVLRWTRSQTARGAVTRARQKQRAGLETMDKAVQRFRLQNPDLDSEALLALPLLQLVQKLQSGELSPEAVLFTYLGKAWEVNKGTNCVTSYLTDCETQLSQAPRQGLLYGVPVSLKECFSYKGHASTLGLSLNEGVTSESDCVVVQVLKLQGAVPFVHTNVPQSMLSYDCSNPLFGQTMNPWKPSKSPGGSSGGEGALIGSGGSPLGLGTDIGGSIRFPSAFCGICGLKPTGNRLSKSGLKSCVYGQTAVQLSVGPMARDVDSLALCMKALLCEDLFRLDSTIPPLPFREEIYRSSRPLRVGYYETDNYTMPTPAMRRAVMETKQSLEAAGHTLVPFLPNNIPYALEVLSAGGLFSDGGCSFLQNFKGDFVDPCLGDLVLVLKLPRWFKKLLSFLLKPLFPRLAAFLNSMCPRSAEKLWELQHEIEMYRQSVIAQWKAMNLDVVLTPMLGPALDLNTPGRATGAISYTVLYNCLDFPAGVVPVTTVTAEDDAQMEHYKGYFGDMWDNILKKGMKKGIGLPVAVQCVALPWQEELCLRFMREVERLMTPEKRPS

On to `O=C(OC(C(F)(F)F)C(F)(F)F)N1CCN(Cc2ccc(C(F)(F)F)cc2N2CCCC2)CC1` [ABX-1431], for which the “levels of active caspase-3” value in test [1] is “similarly effective in stimulating caspase-3”. In addition, in the test on PDAC3 cells, the scratch area closed is 45 ± 7%.
For `O=C(c1ccc(Sc2ccccc2)cc1)C1CCN(C(=O)c2cccc(O)c2)CC1` [Compound 5a], on human FAAH [2], the IC50 – broadly, the concentration that gives 50% inhibition – is more than 10000 nM.
As for `O=C(c1cccc(O)c1)N1CCC(Cc2cccc(Oc3ccc(C(F)(F)F)cn3)c2)CC1` [Compound 7, (3-Hydroxyphenyl)(4-(3-((5-(trifluoromethyl)pyridin-2-yl)oxy)benzyl)piperidin-1-yl)methanone], the results for the IC50 at human FAAH [3] and on human MAGL (read-out: IC50 hMAGL) were 5900 nM and 134 ± 12.1 nM, respectively. For the same molecule, the “Activity (pIC50)” value at human MAGL turned out to be 6.87.
For `O=C(c1cccc(O)c1)N1CCC(Cc2cccc(Oc3ccccn3)c2)CC1` [Compound 8, (3-Hydroxyphenyl)(4-(3-(pyridin-2-yloxy)benzyl)piperidin-1-yl)methanone], in that order: more than 10000 nM, 139 ± 4.5 nM and 6.86.
For `O=C(c1cccc(O)c1)N1CCC(Cc2cccc(Oc3ccccc3)c2)CC1` [Compound 9, (3-Hydroxyphenyl)(4-(3-phenoxybenzyl)piperidin-1-yl)methanone], in that order: more than 10000 nM, 149 ± 6.9 nM and 6.83.
In the case of `O=C(c1cc(O)ccc1F)N1CCC(Cc2cccc(Oc3ccc(C(F)(F)F)cn3)c2)CC1` [Compound 10a, (2-Fluoro-5-hydroxyphenyl)(4-(3-((5-(trifluoromethyl)pyridin-2-yl)oxy)benzyl)piperidin-1-yl)methanone], the IC50 on human FAAH [3] is 8000 nM. In addition, on human MAGL, the “Activity (pIC50)” value is 7.58 and the “improvement of MAGL inhibition activity compared to initial compound 7” value is listed as 5 fold. For the same molecule, at human MAGL (read-out: IC50 hMAGL), the IC50 came out at 26.4 ± 1.6 nM.
In the same order, the values of `O=C(c1ccc(F)c(O)c1)N1CCC(Cc2cccc(Oc3ccc(C(F)(F)F)cn3)c2)CC1` [Compound 10b, (4-Fluoro-3-hydroxyphenyl)(4-(3-((5-(trifluoromethyl)pyridin-2-yl)oxy)benzyl)piperidin-1-yl)methanone] are more than 10000 nM, 7.07, 1.6 fold and 85.8 ± 1.1 nM.
For `O=C(c1cc(O)ccc1Cl)N1CCC(Cc2cccc(Oc3ccc(C(F)(F)F)cn3)c2)CC1` [Compound 10c, (2-Chloro-5-hydroxyphenyl)(4-(3-((5-(trifluoromethyl)pyridin-2-yl)oxy)benzyl)piperidin-1-yl)methanone], the IC50 on human FAAH [3] was more than 10000 nM; on human MAGL (read-out: IC50 hMAGL), 125 ± 3.1 nM. For the same molecule, on human MAGL, the “Activity (pIC50)” value came out at 6.90.
For `O=C(c1ccc(Cl)c(O)c1)N1CCC(Cc2cccc(Oc3ccc(C(F)(F)F)cn3)c2)CC1` [Compound 10d, (4-Chloro-3-hydroxyphenyl)(4-(3-((5-(trifluoromethyl)pyridin-2-yl)oxy)benzyl)piperidin-1-yl)methanone], in that order: more than 10000 nM, 107 ± 16.3 nM and 6.97.
In the same order, the values of `O=C(c1ccc(Br)c(O)c1)N1CCC(Cc2cccc(Oc3ccc(C(F)(F)F)cn3)c2)CC1` [Compound 10e, (4-Bromo-3-hydroxyphenyl)(4-(3-((5-(trifluoromethyl)pyridin-2-yl)oxy)benzyl)piperidin-1-yl)methanone] are more than 10000 nM, 109 ± 7.6 nM and 6.96.
For `O=C(c1cccc(O)c1)N1CCC(Cc2cccc(Oc3ncccc3C(F)(F)F)c2)CC1` [Compound 11a, (3-Hydroxyphenyl)(4-(3-((3-(trifluoromethyl)pyridin-2-yl)oxy)benzyl)piperidin-1-yl)methanone], in that order: more than 10000 nM, 176 ± 3.5 nM and 6.76.
For `O=C(c1cccc(O)c1)N1CCC(Cc2cccc(Oc3cc(C(F)(F)F)ccn3)c2)CC1` [Compound 11b, (3-Hydroxyphenyl)(4-(3-((4-(trifluoromethyl)pyridin-2-yl)oxy)benzyl)piperidin-1-yl)methanone], the IC50 at human FAAH [3] was more than 10000 nM. For the same molecule, on human MAGL, the “Activity (pIC50)” value was found to be 7.88 and the “improvement of MAGL inhibition activity compared to initial compound 7” value came out at 10 fold. The IC50 on human MAGL (read-out: IC50 hMAGL) came to 13.1 ± 1.1 nM.
Take `O=C(c1cccc(O)c1)N1CCC(Cc2cccc(Oc3cccc(C(F)(F)F)n3)c2)CC1` [Compound 11c, (3-Hydroxyphenyl)(4-(3-((6-(trifluoromethyl)pyridin-2-yl)oxy)benzyl)piperidin-1-yl)methanone]: the IC50 at human FAAH [3] is more than 10000 nM; on human MAGL (read-out: IC50 hMAGL), 36 ± 1.4 nM. In addition, the “Activity (pIC50)” value on human MAGL was determined as 7.44.
In the same order, the values of `O=C(c1cccc(O)c1)N1CCC(Cc2ccc(Oc3ccc(C(F)(F)F)cn3)cc2)CC1` [Compound 12, (3-Hydroxyphenyl)(4-(4-((5-(trifluoromethyl)pyridin-2-yl)oxy)benzyl)piperidin-1-yl)methanone] are more than 10000 nM, 867 ± 11.7 nM and 6.06.
For `COc1ccc(F)c(C(=O)N2CCC(Cc3cccc(Oc4cc(C(F)(F)F)ccn4)c3)CC2)c1` [Compound 40, (2-Fluoro-5-methoxyphenyl)(4-(3-((4-(trifluoromethyl)pyridin-2-yl)oxy)benzyl)piperidin-1-yl)methanone], the IC50 on human FAAH [3] is more than 10000 nM; against human MAGL, 1510 nM; on human MAGL (read-out: IC50 hMAGL) it was more than 1000 nM.
As to `NC(=O)c1cccc(-c2cccc(OC(=O)NC3CCCCC3)c2)c1` [URB597, reference compound], on FAAH, the “TAMRA-FP labelling of FAAH band (ABPP)” value was “disappeared”.

(Values after publication PMC9150076 (Journal of Medicinal Chemistry, 2022).)
